Experimental data as given in article PMC5224920, “Assessing the mechanism and therapeutic potential of modulators of the human Mediator complex-associated protein kinases” (eLife, 2016).

Test system: 12 single or co-culture in vitro tissue models of primary cells
Assay: Culture/co-culture cell model panel, extracellular biomarkers (DiscoveRx); as to CCL2/MCP-1: reference of the scale not given here; as to CXCL8/IL-8: reference of the scale not given here; as to CXCL9/MIG: reference of the scale not given here; as to IL-1alpha: reference of the scale not given here; as to M-CSF: reference of the scale not given here; as to PBMC Cytotoxicity: reference of the scale not given here; as to SRB: reference of the scale not given here; as to sTNF-alpha: reference of the scale not given here
Format: cell-based, human
Conditions: for B cell Proliferation / PBMC Cytotoxicity / Secreted IgG / sIL-2 / sIL-6 / sIL-17A / sIL-17F / sTNF-alpha: BT
[1] = HDF3CGF stimulated fibroblasts, 1.00E0 nM
[2] = HDF3CGF stimulated fibroblasts, 1.00E1 nM
[3] = HDF3CGF stimulated fibroblasts, 1.00E2 nM
[4] = HDF3CGF stimulated fibroblasts, 1.00E3 nM

SMILES: Cn1ncc2cc(-c3cnc(N)c(Cl)c3N3CCC4(CCNC4=O)CC3)ccc21 [CMPD 3]
- SRB (BENo, 1.00E3 nM): 0.000914
- tPA (BENo, 1.00E3 nM): -0.008
- uPA (BENo, 1.00E3 nM): 0.00377
- CCL26/Eotaxin-3 (BENo, 1.00E4 nM): 0.042
- CD54/ICAM-1 (BENo, 1.00E4 nM): 0.016
- CD87/uPAR (BENo, 1.00E4 nM): 0.038
- CXCL8/IL-8 (BENo, 1.00E4 nM): 0.023
- CXCL9/MIG (BENo, 1.00E4 nM): 0.059
- CXCL10/IP-10 (BENo, 1.00E4 nM): 0.042
- CXCL11/I-TAC (BENo, 1.00E4 nM): 0.073
- EGFR (BENo, 1.00E4 nM): 0.00756
- HLA-DR (BENo, 1.00E4 nM): 0.014
- IL-1alpha (BENo, 1.00E4 nM): -0.053
- Keratin 8/18 (BENo, 1.00E4 nM): 0.041
- MMP-1 (BENo, 1.00E4 nM): -0.026
- MMP-9 (BENo, 1.00E4 nM): 0.010
- PAI-I (BENo, 1.00E4 nM): -0.144
- SRB (BENo, 1.00E4 nM): -0.006
- tPA (BENo, 1.00E4 nM): 0.015
- uPA (BENo, 1.00E4 nM): -0.00171
- CCL2/MCP-1 (BF4T, 1.00E0 nM): -0.034
- CCL26/Eotaxin-3 (BF4T, 1.00E0 nM): -0.012
- CD54/ICAM-1 (BF4T, 1.00E0 nM): 0.007
- CD90 (BF4T, 1.00E0 nM): -0.021
- CD106/VCAM-1 (BF4T, 1.00E0 nM): 0.067
- CXCL8/IL-8 (BF4T, 1.00E0 nM): 0.013
- IL-1alpha (BF4T, 1.00E0 nM): 0.00747
- Keratin 8/18 (BF4T, 1.00E0 nM): 0.00256
- MMP-1 (BF4T, 1.00E0 nM): 0.013
- MMP-3 (BF4T, 1.00E0 nM): 0.056
- MMP-9 (BF4T, 1.00E0 nM): 0.030
- PAI-I (BF4T, 1.00E0 nM): 0.049
- SRB (BF4T, 1.00E0 nM): 0.00349
- tPA (BF4T, 1.00E0 nM): 0.039
- uPA (BF4T, 1.00E0 nM): 0.035
- CCL2/MCP-1 (BF4T, 1.00E1 nM): -0.011
- CCL26/Eotaxin-3 (BF4T, 1.00E1 nM): -0.071
- CD54/ICAM-1 (BF4T, 1.00E1 nM): -0.035
- CD90 (BF4T, 1.00E1 nM): 0.005
- CD106/VCAM-1 (BF4T, 1.00E1 nM): -0.00425
- CXCL8/IL-8 (BF4T, 1.00E1 nM): 0.046
- IL-1alpha (BF4T, 1.00E1 nM): 0.008
- Keratin 8/18 (BF4T, 1.00E1 nM): 0.009
- MMP-1 (BF4T, 1.00E1 nM): -0.00365
- MMP-3 (BF4T, 1.00E1 nM): 0.023
- MMP-9 (BF4T, 1.00E1 nM): 0.007
- PAI-I (BF4T, 1.00E1 nM): -0.00638
- SRB (BF4T, 1.00E1 nM): 0.000434
- tPA (BF4T, 1.00E1 nM): 0.032
- uPA (BF4T, 1.00E1 nM): -0.000167
- CCL2/MCP-1 (BF4T, 1.00E2 nM): -0.034
- CCL26/Eotaxin-3 (BF4T, 1.00E2 nM): -0.085
- CD54/ICAM-1 (BF4T, 1.00E2 nM): -0.034
- CD90 (BF4T, 1.00E2 nM): 0.00329
- CD106/VCAM-1 (BF4T, 1.00E2 nM): -0.010
- CXCL8/IL-8 (BF4T, 1.00E2 nM): 0.040
- IL-1alpha (BF4T, 1.00E2 nM): -0.00155
- Keratin 8/18 (BF4T, 1.00E2 nM): 0.017
- MMP-1 (BF4T, 1.00E2 nM): -0.009
- MMP-3 (BF4T, 1.00E2 nM): 0.032
- MMP-9 (BF4T, 1.00E2 nM): -0.020
- PAI-I (BF4T, 1.00E2 nM): -0.00143
- SRB (BF4T, 1.00E2 nM): 0.00276
- tPA (BF4T, 1.00E2 nM): 0.041
- uPA (BF4T, 1.00E2 nM): 0.017
- CCL2/MCP-1 (BF4T, 1.00E3 nM): -0.042
- CCL26/Eotaxin-3 (BF4T, 1.00E3 nM): -0.098
- CD54/ICAM-1 (BF4T, 1.00E3 nM): -0.035
- CD90 (BF4T, 1.00E3 nM): 0.00842
- CD106/VCAM-1 (BF4T, 1.00E3 nM): -0.023
- CXCL8/IL-8 (BF4T, 1.00E3 nM): 0.030
- IL-1alpha (BF4T, 1.00E3 nM): -0.009
- Keratin 8/18 (BF4T, 1.00E3 nM): 0.034
- MMP-1 (BF4T, 1.00E3 nM): 0.000873
- MMP-3 (BF4T, 1.00E3 nM): 0.030
- MMP-9 (BF4T, 1.00E3 nM): -0.009
- PAI-I (BF4T, 1.00E3 nM): 0.022
- SRB (BF4T, 1.00E3 nM): 0.00179
- tPA (BF4T, 1.00E3 nM): 0.045
- uPA (BF4T, 1.00E3 nM): 0.019
- CCL2/MCP-1 (BF4T, 1.00E4 nM): -0.010
- CCL26/Eotaxin-3 (BF4T, 1.00E4 nM): -0.092
- CD54/ICAM-1 (BF4T, 1.00E4 nM): -0.042
- CD90 (BF4T, 1.00E4 nM): 0.017
- CD106/VCAM-1 (BF4T, 1.00E4 nM): 0.005
- CXCL8/IL-8 (BF4T, 1.00E4 nM): 0.022
- IL-1alpha (BF4T, 1.00E4 nM): -0.002
- Keratin 8/18 (BF4T, 1.00E4 nM): 0.038
- MMP-1 (BF4T, 1.00E4 nM): 0.00226
- MMP-3 (BF4T, 1.00E4 nM): 0.073
- MMP-9 (BF4T, 1.00E4 nM): 0.010
- PAI-I (BF4T, 1.00E4 nM): 0.013
- SRB (BF4T, 1.00E4 nM): 0.000467
- tPA (BF4T, 1.00E4 nM): 0.028
- uPA (BF4T, 1.00E4 nM): -0.035
- B cell Proliferation (1.00E0 nM): 0.00438
- PBMC Cytotoxicity (1.00E0 nM): 0.034
- Secreted IgG (1.00E0 nM): -0.074
- sIL-2 (1.00E0 nM): 0.110
- sIL-6 (1.00E0 nM): 0.008
- sIL-17A (1.00E0 nM): 0.110
- sIL-17F (1.00E0 nM): -0.037
- sTNF-alpha (1.00E0 nM): 0.089
- B cell Proliferation (1.00E1 nM): -0.011
- PBMC Cytotoxicity (1.00E1 nM): -0.016
- Secreted IgG (1.00E1 nM): 0.026
- sIL-2 (1.00E1 nM): 0.017
- sIL-6 (1.00E1 nM): -0.016
- sIL-17A (1.00E1 nM): 0.095
- sIL-17F (1.00E1 nM): -0.399
- sTNF-alpha (1.00E1 nM): -0.021
- B cell Proliferation (1.00E2 nM): -0.056
- PBMC Cytotoxicity (1.00E2 nM): -0.027
- Secreted IgG (1.00E2 nM): -0.165
- sIL-2 (1.00E2 nM): 0.084
- sIL-6 (1.00E2 nM): 0.046
- sIL-17A (1.00E2 nM): 0.184
- sIL-17F (1.00E2 nM): -0.384
- sTNF-alpha (1.00E2 nM): 0.022
- B cell Proliferation (1.00E3 nM): -0.058
- PBMC Cytotoxicity (1.00E3 nM): -0.050
- Secreted IgG (1.00E3 nM): -0.370
- sIL-2 (1.00E3 nM): -0.083
- sIL-6 (1.00E3 nM): -0.147
- sIL-17A (1.00E3 nM): 0.263
- sIL-17F (1.00E3 nM): -0.522
- sTNF-alpha (1.00E3 nM): -0.114
- B cell Proliferation (1.00E4 nM): -0.233
- PBMC Cytotoxicity (1.00E4 nM): -0.092
- Secreted IgG (1.00E4 nM): -0.611
- sIL-2 (1.00E4 nM): -0.213
- sIL-6 (1.00E4 nM): -0.493
- sIL-17A (1.00E4 nM): 0.164
- sIL-17F (1.00E4 nM): -0.874
- sTNF-alpha (1.00E4 nM): -0.249
- CCL2/MCP-1 [1]: -0.000698
- CD54/ICAM-1 [1]: 0.022
- CD106/VCAM-1 [1]: -0.007
- CXCL8/IL-8 [1]: -0.00379
- CXCL9/MIG [1]: 0.00441
- CXCL10/IP-10 [1]: 0.006
- CXCL11/I-TAC [1]: 0.016
- Collagen I [1]: 0.078
- Collagen III [1]: 0.045
- EGFR [1]: 0.070
- M-CSF [1]: 0.015
- MMP-1 [1]: 0.046
- PAI-I [1]: 0.072
- Proliferation_72hr [1]: -0.019
- SRB [1]: -0.009
- TIMP-1 [1]: 0.031
- TIMP-2 [1]: 0.091
- CCL2/MCP-1 [2]: -0.016
- CD54/ICAM-1 [2]: -0.00318
- CD106/VCAM-1 [2]: 0.013
- CXCL8/IL-8 [2]: -0.026
- CXCL9/MIG [2]: -0.00175
- CXCL10/IP-10 [2]: 0.035
- CXCL11/I-TAC [2]: -0.00346
- Collagen I [2]: 0.095
- Collagen III [2]: 0.043
- EGFR [2]: -0.010
- M-CSF [2]: -0.053
- MMP-1 [2]: 0.052
- PAI-I [2]: -0.000592
- Proliferation_72hr [2]: -0.139
- SRB [2]: -0.015
- TIMP-1 [2]: -0.019
- TIMP-2 [2]: 0.138
- CCL2/MCP-1 [3]: -0.095
- CD54/ICAM-1 [3]: -0.046
- CD106/VCAM-1 [3]: 0.00848
- CXCL8/IL-8 [3]: -0.030
- CXCL9/MIG [3]: -0.053
- CXCL10/IP-10 [3]: 0.038
- CXCL11/I-TAC [3]: -0.019
- Collagen I [3]: 0.072
- Collagen III [3]: 0.069
- EGFR [3]: -0.024
- M-CSF [3]: -0.078
- MMP-1 [3]: 0.030
- PAI-I [3]: -0.00555
- Proliferation_72hr [3]: -0.249
- SRB [3]: -0.018
- TIMP-1 [3]: -0.057
- TIMP-2 [3]: 0.140
- CCL2/MCP-1 [4]: -0.140
- CD54/ICAM-1 [4]: -0.051
- CD106/VCAM-1 [4]: 0.034
- CXCL8/IL-8 [4]: -0.084
- CXCL9/MIG [4]: -0.075
- CXCL10/IP-10 [4]: 0.033
- CXCL11/I-TAC [4]: -0.016
- Collagen I [4]: 0.079
- Collagen III [4]: 0.097
